Reference: patent publication US20220324835A1 (Nurix Therapeutics, Inc., priority 2018, published 2022)
pIC50, pKd: −log10 of the molar value.

Tests used:
T-cell [1] = assay: IL-2 secretion from T-cells stimulated with anti-CD3 antibody alone (Biological Example 2); format: cell-based, human; conditions: T-cell, fold change over baseline, primary human total T-cells, read-out: IL-2 secretion Anti-CD3 stimulation; for fold induction at 1 µM: 1 μM Cbl-b inhibitor; for fold induction at 8 µM: 8 μM Cbl-b inhibitor
T-cell [2] = assay: CD25 cell surface staining on T-cells co-stimulated with anti-CD3 and anti-CD28 antibody (Biological Example 2); format: cell-based, human; conditions: Homo sapiens, T-cell, fold change over baseline, primary human total T-cells, read-out: CD25 staining Anti-CD3/Anti-CD28 stimulation; for fold induction at 0.3 µM: 0.3 μM Cbl-b inhibitor; for fold induction at 1 µM: 1 μM Cbl-b inhibitor; for fold induction at 4 µM: 4 μM Cbl-b inhibitor
Outline: (§1)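 T-cells were stimulated with anti-CD3 antibody alone or with anti-CD28 antibody, in the presence or absence of Cbl-b inhibitor. IL-2 secretion or CD25 surface staining was measured, and values expressed as fold over the uninhibited baseline […].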

Cbl-b (residues 36-427) = Cbl-b (residues 36-427) (Homo sapiens, UniProt Q13191); assay: Cbl-b binding assay (SPR, Biacore T200); conditions: 20° C., 1:1 binding model
Sequence of Cbl-b (residues 36-427) (Q13191 36-427): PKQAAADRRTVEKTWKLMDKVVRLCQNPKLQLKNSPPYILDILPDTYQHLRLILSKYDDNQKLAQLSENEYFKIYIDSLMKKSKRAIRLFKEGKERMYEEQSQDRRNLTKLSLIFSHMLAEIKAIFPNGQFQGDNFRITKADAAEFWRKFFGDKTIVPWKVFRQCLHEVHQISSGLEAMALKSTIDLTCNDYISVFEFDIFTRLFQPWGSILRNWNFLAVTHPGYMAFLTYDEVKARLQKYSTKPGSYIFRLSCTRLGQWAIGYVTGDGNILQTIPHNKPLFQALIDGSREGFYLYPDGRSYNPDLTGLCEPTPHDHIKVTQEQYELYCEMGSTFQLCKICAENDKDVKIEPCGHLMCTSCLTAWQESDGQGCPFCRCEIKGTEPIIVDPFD
Outline: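 Steps: capture protein on NeutrAvidin surface; inject compound dilutions (8 or 10 points from 100 or 50 μM) 50 s; allow 90-180 s dissociation; regenerate 20 s with 0.3 M NaCl. Runs at 20° C in HEPES pH 7.5/100 mM NaCl/2% DMSO; 1:1 fitting.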

T-cell [3] = assay: CD25 cell surface staining on T-cells stimulated with anti-CD3 antibody alone (Biological Example 2); format: cell-based, human; conditions: T-cell, fold change over baseline, primary human total T-cells, read-out: CD25 staining Anti-CD3 stimulation; for fold induction at 1 µM: 1 μM Cbl-b inhibitor; for fold induction at 8 µM: 8 μM Cbl-b inhibitor
T-cell [4] = assay: IL-2 secretion from T-cells co-stimulated with anti-CD3 and anti-CD28 antibody (Biological Example 2); format: cell-based, human; conditions: Homo sapiens, T-cell, fold change over baseline, primary human total T-cells, read-out: IL-2 secretion Anti-CD3/Anti-CD28 stimulation; for fold induction at 0.3 µM: 0.3 μM Cbl-b inhibitor; for fold induction at 1 µM: 1 μM Cbl-b inhibitor; for fold induction at 4 µM: 4 μM Cbl-b inhibitor
Outline: as §1

Cbl-b [5] = target: T1, Cbl-b (Homo sapiens, UniProt Q13191); assay: Cbl-b activity assay (Cbl-b inhibition assay), TR-FRET of Cbl-b interaction with UbcH5B-Ub; format: biochemical; conditions: for pIC50: assay buffer with 100 mM NaCl, 60 nM Src kinase, read-out: Cbl-b activity IC50
T1 sequence (Q13191 36-427): as above
Outline: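 UbcH5B (C85K) conjugated to N-terminally Bodipy-Fluorescein-labeled ubiquitin served as the fluorescent partner. After compound preincubation, Src kinase (60 nM) with 1 mM ATP and 5 mM MgCl2 (final) was added for 1.5 h, followed by a further 1 h incubation. Some values were obtained with 50 mM NaCl and 30 nM Src.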

Cbl-b [6] = target: T1, Cbl-b; assay: Cbl-b inhibition assay (Cbl-b activity assay, FRET, Biological Example 1; 100 mM NaCl, 60 nM Src kinase); format: biochemical; conditions: upper bound stated in text lists; read-out: IC50 values in the Cbl-b inhibition assay of Biological Example 1
Outline: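 Steps: Src kinase phosphorylates N-terminal biotinylated Avi-tagged Cbl-b; phosphorylated Cbl-b binds Bodipy-fluorescein ubiquitin-loaded UbcH5B; streptavidin-terbium on Cbl-b sits close to the fluorescein label, producing FRET. Inhibitors block UbcH5B-Ub binding.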

SMILES	pKd (Cbl-b (residues 36-427))	pIC50 (Cbl-b [5])	pIC50 (Cbl-b [6])	also measured
C[C@H](Sc1nncn1C)c1cccc(NC(=O)c2cc3cc(OCc4ccn[nH]4)ccc3cn2)c1 [Compound 307, (S)-6-((1H-pyrazol-5-yl)methoxy)-N-(3-(1-((4-methyl-4H-1,2,4-triazol-3-yl)thio)ethyl)phenyl)isoquinoline-3-carboxamide]	6.00 to 6.52	6.52 to 7.00		fold induction at 1 µM (T-cell [1]): 0.051 to 0.1; fold induction at 8 µM (T-cell [1]): 0.101 to 0.15; fold induction at 0.3 µM (T-cell [2]): < 1; fold induction at 1 µM (T-cell [2]): < 1; fold induction at 4 µM (T-cell [2]): 1.01 to 1.3; fold induction at 1 µM (T-cell [3]): < 0.6; fold induction at 8 µM (T-cell [3]): < 0.6; fold induction at 0.3 µM (T-cell [4]): 1.01 to 2.5; fold induction at 1 µM (T-cell [4]): 1.01 to 2.5; fold induction at 4 µM (T-cell [4]): 2.51 to 5
C[C@H](Cc1nncn1C)c1cccc(NC(=O)c2[nH]nc3c2CCCC3)c1 [Compound 327, (R)-N-(3-(1-(4-Methyl-4H-1,2,4-triazol-3-yl)propan-2-yl)phenyl)-4,5,6,7-tetrahydro-2H-indazole-3-carboxamide]	5.52 to 6.00	6.00 to 6.52		fold induction at 1 µM (T-cell [1]): 0.051 to 0.1; fold induction at 8 µM (T-cell [1]): 0.051 to 0.1; fold induction at 0.3 µM (T-cell [2]): 1.01 to 1.3; fold induction at 1 µM (T-cell [2]): 1.01 to 1.3; fold induction at 4 µM (T-cell [2]): 1.01 to 1.3; fold induction at 1 µM (T-cell [3]): 0.601 to 0.8; fold induction at 8 µM (T-cell [3]): 0.801 to 1; fold induction at 0.3 µM (T-cell [4]): 1.01 to 2.5; fold induction at 1 µM (T-cell [4]): 1.01 to 2.5; fold induction at 4 µM (T-cell [4]): 1.01 to 2.5
C[C@H](Sc1nncn1C)c1ccnc(NC(=O)c2nc3ccccc3s2)c1 [Compound 121, N-[4-[(1S)-1-[(4-methyl-1,2,4-triazol-3-yl)sulfanyl]ethyl]-2-pyridyl]-1,3-benzothiazole-2-carboxamide]	5.00 to 5.52	5.00 to 5.52	≥ 5.00	
Cc1cnc(C(=O)Nc2cccc([C@H](C)Sc3nncn3C)c2)cc1C1CC1 [Compound 53, (S)-4-cyclopropyl-5-methyl-N-(3-(1-((4-methyl-4H-1,2,4-triazol-3-yl)thio)ethyl)phenyl)picolinamide]	5.00 to 5.52	5.00 to 5.52	≥ 5.00	
C[C@H](Sc1nncn1C)c1ccnc(NC(=O)c2cc3c(cn2)CCCC3)c1 [Compound 109, (S)-N-(4-(1-((4-methyl-4H-1,2,4-triazol-3-yl)thio)ethyl)pyridin-2-yl)-5,6,7,8-tetrahydroisoquinoline-3-carboxamide]	5.00 to 5.52	5.00 to 5.52	≥ 5.00	
C[C@H](Cc1nncn1C)c1cccc(NC(=O)c2cc(C(=O)N3CC[C@H](C#N)C3)ccn2)c1 [Compound 236, 4-[(3S)-3-cyanopyrrolidine-1-carbonyl]-N-[3-[(2R)-1-(4-methyl-4H-1,2,4-triazol-3-yl)propan-2-yl]phenyl]pyridine-2-carboxamide]	5.52 to 6.00	5.52 to 6.00	≥ 5.00	
COc1c(C(=O)Nc2cccc([C@H](C)Sc3nncn3C)c2)cccc1C(F)(F)F [Compound 43, (S)-2-Methoxy-N-(3-(1-((4-methyl-4H-1,2,4-triazol-3-yl)thio)ethyl)phenyl)-3-(trifluoromethyl)benzamide]	< 5.00	5.00 to 5.52	≥ 5.00	
C[C@H](Sc1nncn1C)c1cccc(NC(=O)c2nc(C(F)(F)F)cs2)c1 [Compound 74, N-[3-[(1 S)-1-[(4-methyl-1,2,4-triazol-3-yl)sulfanyl]ethyl]phenyl]-4-(trifluoromethyl)thiazole-2-carboxamide]	5.52 to 6.00	6.00 to 6.52	≥ 6.00	
C[C@H](Sc1nncn1C)c1ccnc(NC(=O)c2cccc(OC(F)(F)F)n2)c1 [Compound 122, (S)-N-(4-(1-((4-methyl-4H-1,2,4-triazol-3-yl)thio)ethyl)pyridin-2-yl)-6-(trifluoromethoxy)picolinamide]	5.52 to 6.00	5.52 to 6.00	≥ 5.00	
CNc1cc(C(C)Sc2nncn2C)cc(N2Cc3c(cccc3C(F)(F)F)C2=O)n1 (stereo not shown) [Compound 180, 2-[6-(methylamino)-4-[1-[(4-methyl-1,2,4-triazol-3-yl)sulfanyl]ethyl]-2-pyridyl]-4-(trifluoromethyl)isoindolin-1-one]	5.52 to 6.00	5.52 to 6.00	≥ 5.00	
COc1cc(C(F)(F)F)cc(C(=O)Nc2cccc([C@H](C)Sc3nncn3C)c2)n1 [Compound 73, (S)-6-methoxy-N-(3-(1-((4-methyl-4H-1,2,4-triazol-3-yl)thio)ethyl)phenyl)-4-(trifluoromethyl)picolinamide]	5.00 to 5.52	5.52 to 6.00	≥ 5.00	
CC(Sc1nncn1C)c1cccc(NC(=O)c2ccc3c(n2)CCCC3)c1 (stereo not shown) [Compound 23, N-(3-(1-((4-Methyl-4H-1,2,4-triazol-3-yl)thio)ethyl)phenyl)-5,6,7,8-tetrahydroquinoline-2-carboxamide]	5.00 to 5.52	5.52 to 6.00	≥ 5.00	IC50 (Cbl-b [5]; * assay buffer containing 50 mM NaCl instead of 100 mM NaCl and 30 nM Src kinase instead of 60 nM, read-out: Cbl-b activity IC50 (μM)*): 1 to 3 µM
C[C@@H](Cc1nncn1C)c1cc(F)cc(N2Cc3c(cccc3C(F)(F)F)C2=O)c1 [Compound 281b, 2-[3-Fluoro-5-[(1S)-1-methyl-2-(4-methyl-1,2,4-triazol-3-yl)ethyl]phenyl]-4-(trifluoromethyl)isoindolin-1-one]	6.52 to 7.00	5.00 to 5.52	≥ 5.00	
C[C@H](Cc1nncn1C)c1cccc(NC(=O)c2cc(N[C@@H]3CC[C@H](O)C3)ccn2)c1 [Compound 204, 4-((1R,3S)-3-hydroxycyclopentylamino)-N-(3-((R)-1-(4-methyl-4H-1,2,4-triazol-3-yl)propan-2-yl)phenyl)picolinamide]	5.52 to 6.00	5.52 to 6.00	≥ 5.00	
C[C@H](Sc1nncn1C)c1ccnc(NC(=O)c2cccc(C(C)(F)F)n2)c1 [Compound 110, (S)-6-(1,1-difluoroethyl)-V-(4-(1-((4-methyl-4H-1,2,4-triazol-3-yl)thio)ethyl)pyridin-2-yl)picolinamide]	5.00 to 5.52	6.00 to 6.52	≥ 6.00	
COc1nc(C(=O)Nc2cc([C@H](C)Sc3nncn3C)ccn2)ccc1Cl [Compound 125, (S)-5-chloro-6-methoxy-N-(4-(1-((4-methyl-4H-1,2,4-triazol-3-yl)thio)ethyl)pyridin-2-yl)picolinamide]	5.00 to 5.52	5.52 to 6.00	≥ 5.00	
C[C@H](Cc1nncn1C)c1cccc(N2Cc3c(cc(CN4CC[C@H](O)C4)cc3C(F)(F)F)C2=O)c1 [Compound 394, 6-(((S)-3-hydroxypyrrolidin-1-yl)methyl)-2-(3-((R)-1-(4-methyl-4H-1,2,4-triazol-3-yl)propan-2-yl)phenyl)-4-(trifluoromethyl)isoindolin-1-one]	> 7.00	> 7.00	≥ 7.00	
C[C@H](Sc1nncn1C)c1cccc(NC(=O)c2cc(C(=O)N3CC[C@@H](O)C3)ccn2)c1 [Compound 139, 4-((R)-3-hydroxypyrrolidine-1-carbonyl)-N-(3-((S)-1-((4-methyl-4H-1,2,4-triazol-3-yl)thio)ethyl)phenyl)picolinamide]	5.00 to 5.52	5.00 to 5.52	≥ 5.00	
C[C@H](Cc1nncn1C)c1cccc(NC(=O)c2cc(C(=O)N3CC[C@](C)(N)C3)ccn2)c1 [Compound 229, 4-((S)-3-amino-3-methylpyrrolidine-1-carbonyl)-N-(3-((R)-1-(4-methyl-4H-1,2,4-triazol-3-yl)propan-2-yl)phenyl)picolinamide]	5.52 to 6.00	5.52 to 6.00	≥ 5.00	
C[C@H](Sc1nncn1C)c1cccc(NC(=O)c2cc(C(=O)N3C[C@@H](O)C[C@@H]3C)ccn2)c1 [Compound 154, 4-((2S,4S)-4-hydroxy-2-methylpyrrolidine-1-carbonyl)-N-(3-((S)-1-((4-methyl-4H-1,2,4-triazol-3-yl)thio)ethyl)phenyl)picolinamide]	< 5.00	5.00 to 5.52	≥ 5.00	
